{"source": "patent US7048943B2", "about": "“Carotenoid-loaded liposomes” (Yissum Research Development Company of the Hebrew …, priority 2001, dated 2006)", "key": {"[1]": {"tested_on": "Epidermal equivalents (normal, human-derived epidermal keratinocytes)", "assay": "Protection against UV induced loss of viability (LDH release)", "format": "cell-based", "protocol": "(§1) Cell Culture • Epidermal equivalents (4.0 cm^2) were purchased from SkinEthic (Nice, France). Each equivalent served as a multilayered model of the epidermis consisting of normal, human-derived epidermal keratinocytes. Equivalents were cultured in a defined hydrocortisone and phenol red free medium supplied from SkinEthic. Instruments • Kontron (Switzerland) HPLC system. 425 pump, 430 detector, 460 automatic injector and 450 data analysis system. Column: LiChroCART®250-4, RP-select B (5 μm), Merck catalog no. […]\n(§2) Twenty four hours post irradiation, the culture medium was collected from the treated epidermal equivalents and evaluated for IL-1α release levels using a commercially available ELISA kit. Cell viability was determined immediately post irradiation using LDH leakage measurments.\n(§3) Epidermal Equivalents were purchased from SkinEthic (Nice, France) and cultured in phenol free, hydrocortisone free media. […] Forty-eight hours post irradiation, the medium beneath each equivalent was collected and analyzed for secreted IL-1α by ELISA (Endogen). LDH level (Boehringer Mannheim) was measured immediately post irradiation and after 48 hours to determine the effect of treatment and UV exposure on cell viability. […]"}, "[2]": {"tested_on": "Epidermal equivalents (normal, human-derived epidermal keratinocytes)", "assay": "Protection against UV induced IL-1α release", "format": "cell-based", "conditions": "at 0.01%, UV irradiation", "protocol": "as §1, §2, §3"}, "[3]": {"assay": "Partition of lycopene in tri-phase system (soya oil / water / egg PC SUV)", "format": "physicochemical", "conditions": "for Kp Lip/Oil: partition coefficient liposome/oil, liposomes 10% by weight; for Liposome/oil: ratio of lycopene in liposomal phase to oil phase; for Insoluble lycopene / lycopene concentration, Liposomal phase / lycopene concentration, Oil phase: soya oil / water / egg PC SUV, highest lycopene level; for lycopene concentration, Liposomal phase / lycopene concentration, Oil phase: mixed 2 hours at room temperature", "protocol": "The partition coefficient of lycopene in tri-phase systems was also evaluated. Tri-phase systems may serve for the determination of availability of the lycopene into biological membranes. The system used herein was composed from […]: soya oil in which the lycopene was present and water in which liposomes (10% by weight) in the form of small unilamellar vesicles (SUV) composed of pure egg phosphatidyl choline are present as the third phase.\nThe small unilamellar liposomes (SUV) composed of pure lipid (Ludwigshafen, Germany) egg phosphatidylcholine (egg PC) of an 80 nm were prepared and characterized as described by Haran et al. [Haran G. et al. Biochim. Biophys. Acta 1151:201–215 (1993)]. SUV egg PC size was ˜80 nm. The partition coefficient in the three phase system was performed at three different levels of lycopene—low, medium and high amounts, using crystalline lycopene (originated from fungi), 92% powder (LycoRed), 75% powder lycopene (LycoRed) and oleoresin (containing 6.06% by weight of lycopene). In case of the highest level, lycopene from tomato concentrate (containing 0.073% lycopene) was also evaluated.\nPreparation of the three phase systems included the following steps; first, lycopene was dispersed in soya oil (4 ml) by ultrasonic irradiation in an ultrasonic bath (35 kHz, 285W). Then, the precipitate was removed, aliquots of the oil were diluted in isopropanol with ratio ranging from 1:10 to 1:100 and the concentration of lycopene in oil phase was determined.\nThen, to soya oil saturated with lycopene (1.5 ml) egg PC SUV in water (1.5 ml) were added to form the three phase system. The system was then mixed for 2 hours at room temperature using a flask shaker (A5-6021, St. John Associate Inc.), after which aliquots of the oil phase and the liposomal aqueous phase were removed.\nIn particular, the aqueous phase was extracted using heptane into which more than 98% of the lycopene was extracted. This extract was evaporated to dryness and the residue was dissolved in 200 μl isopropanol and analyzed by HPLC to determine the amount of lycopene present in the liquid and oil phase.\nThe concentration of lycopene in the liposome phase was calculated based on the procedure of Samuni and Barenholz [Samuni A. M. and Barenholz Y, Biol. Med. 22:1165–1174 (1996); Barenholz Y. et al. M. Biophys. J. 59:110–124 (1991)]. The following Table 4 summarizes the results obtained."}, "[4]": {"tested_on": "CD-1 Mice", "assay": "Oxazolone induced ear edema", "format": "in vivo", "conditions": "topical on left ear 1 hour after 2% oxazolone challenge, ear punch weight after 24 hours, versus vehicle group", "protocol": "CD-1 Mice were induced with 3% oxazolone (Sigma) (30 mg/ml) made up in corn oil: acetone on a shaved abdomen. Five days later the mice were challenged with a 2% oxazolone (20 (mg/ml) in acetone on the left ear, right ear was untreated. One hour after challenging, the formulations examined (E1–E8) in a 70% EtOH/30% propylene glycol vehicle were applied onto the left ear. After 24 hours the mice were sacrificed and 7 mm ear punches were taken. The ear punches were placed on a scale and the difference between the treated and untreated ears was measured.\nThe percent inhibition was calculated by comparing the means of each group to the vehicle group. The positive control was hydrocortisone."}, "[5]": {"assay": "Entrapment of lycopene in MLV liposomes", "format": "physicochemical", "conditions": "liposomes composed of lipid/lycopene 10:1", "protocol": "Method of Preparation—The phospholipids were dissolved in cyclohexane at a w/v ratio of 1 mg phospholipid per 10 ml cyclohexane. The dissolving required heating for several seconds at 60° C. and/or sonication for up to 3 minutes. Lycopene was added as powder to the solution, which was then vortexed. The resulting solution was lyophilized overnight and kept at −20° C. until use. To form multilamellar liposome (MLV), 2 ml of 0.9% NaCl were added to the lyophilizate followed by vortex to yield MLV encapsulated lycopene.\nMethod of Preparation—Lycopene was dissolved in cyclohexane at a w/v ratio of 1 mg of lycopene per 2 ml of cyclohexane. The dissolving required heating for several seconds at 60° C. and sonication for up to 3 minutes until all the lycopene was dissolved. The phospholipids were added as powder to the solution and the mixture was mixed with vortex. The solution was lyophilized overnight in bottles and closed in vacuum. The lyophilized bottles were kept at −20° C. until use.\nTo form MLV encapsulated lycopene, 2 ml of 0.9% NaCl were added followed by vortex. The percentage of entrapment of lycopene in the formulation was 85.31%.\nIn general, the population of the liposomes was heterogeneous. […] The 75% lycopene entrapment in liposomes composed of lipid/lycopene 10:1 was measured, wherein 17.5% of the lycopene was entrapped in the MLV. […]"}, "[6]": {"assay": "Solubility of lycopene in organic solvents (saturation concentration, HPLC and absorbance at 472 nm)", "method": "Lycopene Quantification—lycopene was analyzed for degradation and quantified by The HPLC buffer used comprised acetonitrile: methanol: methylene chloride: hexane and a ratio of 850:100:25:25 (all HPLC grade, Hoffman La Roche). Quantification was based on a standard curve obtained for lycopene (LycoRed standard. The amount of lycopene was also determined by absorbance at 472 nm.\nAll samples were diluted with ethanol before measurement. The saturation concentrations of the lycopene were determined by BPLC and by the use of a spectrophotometer (absorbance at 472 nm, where the area under the peak was measured). The saturation limit was defined as the concentration where a precipitate first appears. The concentration of lycopene at saturation was determined after removal of precipitate by high speed centrifugation from the absorbance at 472 nm (the λmax for the ‘red’ form of lycopene) using double beam UVikon 860 (Kontron, Switzerland) spectrometer.\nBoth types of lycopene were in a powder form before dissolving in cyclohexane. […] These measures were taken after a year and a half of storage at −20° C."}}, "data": [{"smiles": "O=C(O)CCCC[C@@H]1CCSS1", "note": "(racemic) [Lipoic Acid, lipoic acid]", "values": [{"measurement": "Loss of viability (LDH), LDH release, protection", "setting": "[1]; at 1%, UV irradiation (Table 7C)", "value": 100, "unit": "% protection with 1%"}]}, {"smiles": "O=C1O[C@H]([C@@H](O)CO)C(O)=C1O", "note": "[Ascorbic acid, ascorbic acid]", "values": [{"measurement": "LDH Release, protection, First assay", "setting": "[1]; at 0.01%, UV irradiation", "value": 100, "unit": "% protection with 0.01%"}, {"measurement": "IL-1α release, protection, First assay", "setting": "[2]", "value": 100, "unit": "% protection with 0.01%"}]}, {"smiles": "CC(C)=CCC/C(C)=C/C=C/C(C)=C/C=C/C(C)=C/C=C/C=C(C)/C=C/C=C(C)/C=C/C=C(\\C)CCC=C(C)C", "note": "[Crystalline, lycopene, reference compound]", "values": [{"measurement": "Kp Lip/Oil", "setting": "[3]", "value": 0.00952}, {"measurement": "Liposome/oil", "setting": "[3]", "value": 0.00095}, {"measurement": "Insoluble lycopene", "setting": "[3]", "value": 6.9740, "unit": "mμ"}, {"measurement": "lycopene concentration, Liposomal phase", "setting": "[3]", "value": 0.0001, "unit": "mμ"}, {"measurement": "lycopene concentration, Oil phase", "setting": "[3]", "value": 0.1458, "unit": "mμ"}]}, {"smiles": "C[C@]12CCC(=O)C=C1CC[C@@H]1[C@@H]2[C@@H](O)C[C@@]2(C)[C@H]1CC[C@]2(O)C(=O)CO", "note": "[Hydrocortisone, hydrocortisone]", "values": [{"measurement": "% inhibition", "setting": "[4]", "value": 92.6, "unit": "%"}]}, {"smiles": "CC(C)=CCC/C(C)=C/C=C/C(C)=C/C=C/C(C)=C/C=C/C=C(C)/C=C/C=C(C)/C=C/C=C(\\C)CCC=C(C)C", "note": "[Power 92% Powder, lycopene]", "values": [{"measurement": "Kp Lip/Oil", "setting": "[3]", "value": 0.4141}, {"measurement": "Liposome/oil", "setting": "[3]", "value": 0.0414}, {"measurement": "Insoluble lycopene", "setting": "[3]", "value": 6.7084, "unit": "mμ"}, {"measurement": "lycopene concentration, Liposomal phase", "setting": "[3]", "value": 0.0020, "unit": "mμ"}, {"measurement": "lycopene concentration, Oil phase", "setting": "[3]", "value": 0.0495, "unit": "mμ"}]}, {"smiles": "CC(C)=CCC/C(C)=C/C=C/C(C)=C/C=C/C(C)=C/C=C/C=C(C)/C=C/C=C(C)/C=C/C=C(\\C)CCC=C(C)C", "note": "[lycopene 75%, lycopene]", "values": [{"measurement": "lycopene entrapped in the MLV", "setting": "[5]", "value": 17.5, "unit": "%"}, {"measurement": "Kp Lip/Oil", "setting": "[3]; listed as Powder 75%", "value": 0.4972}, {"measurement": "Liposome/oil", "setting": "[3]; listed as Powder 75%", "value": 0.0497}, {"measurement": "Insoluble lycopene", "setting": "[3]; listed as Powder 75%", "value": 5.7899, "unit": "mμ"}, {"measurement": "lycopene concentration, Liposomal phase", "setting": "[3]; listed as Powder 75%", "value": 0.0062, "unit": "mμ"}, {"measurement": "lycopene concentration, Oil phase", "setting": "[3]; listed as Powder 75%", "value": 0.1239, "unit": "mμ"}, {"measurement": "maximal solubility in cyclohexane", "setting": "[6]; after a year and a half of storage at −20° C.", "value": 1960, "unit": "µM"}, {"measurement": "Concentration (mM)/HPLC", "setting": "[6]; saturation in Cyclohexane", "value": 0.22, "unit": "mM"}, {"measurement": "Concentration (mM)/HPLC", "setting": "[6]; saturation in Soy oil", "value": 0.14, "unit": "mM"}, {"measurement": "Concentration (mM)/HPLC", "setting": "[6]; saturation in ethanol", "value": 0.059, "unit": "mM"}, {"measurement": "Concentration (mM)/HPLC", "setting": "[6]; saturation in i-propanol", "value": 0.037, "unit": "mM"}, {"measurement": "Concentration (mM)/HPLC", "setting": "[6]; saturation in n-hexane", "value": 0.18, "unit": "mM"}, {"measurement": "Concentration (mM)/HPLC", "setting": "[6]; saturation in t-butanol", "value": 0.016, "unit": "mM"}]}, {"smiles": "CC(C)=CCC/C(C)=C/C=C/C(C)=C/C=C/C(C)=C/C=C/C=C(C)/C=C/C=C(C)/C=C/C=C(\\C)CCC=C(C)C", "note": "[lycopene 95%, lycopene]", "values": [{"measurement": "solubility", "setting": "[6]; cyclohexane, organic solvent or mixture, thermodynamic from solid, maximal solubility in cyclohexane, after a year and a half of storage at −20° C.", "value": 2650, "unit": "µM"}]}, {"smiles": "CC(C)=CCC/C(C)=C/C=C/C(C)=C/C=C/C(C)=C/C=C/C=C(C)/C=C/C=C(C)/C=C/C=C(\\C)CCC=C(C)C", "note": "[lycopene]", "values": [{"measurement": "solubility in an aqueous phase", "setting": "[3]; conclusion from tri-phase system", "value": "very low, if any"}]}]}
